In publication PMC12040169 (PLOS Biology, 2025) one finds viability data, which are given here for 77 molecules.

Each structure is given as a SMILES string.

One series in a line: in vitro. The note with it: human, hela cells, % viability.
Turning to `Cc1c(C(=O)O)sc2nc(SCC(=O)Nc3ccc(OCc4ccccc4)cc3)[nH]c(=O)c12` [CBK296992], the viability at 28.5 h, 10 µM turned out to be 88.5%.

Take `Cc1nc2ccccc2n1CC(=O)NCCN1CCCC1` [CBK267336]: the viability at 28.5 h, 10 µM stood at 113%.

On to `CN(C)C(=O)C(C)(C)Oc1cc(C(F)(F)F)n(C)n1` [CBK056980], for which the viability at 28.5 h, 10 µM was determined as 94.2%. For the molecule `COc1ccc(NC(=S)NCCCN(C)C)cc1` [CBK264292], the viability at 28.5 h, 10 µM stood at 96.2%.

For the molecule `CC(C)(C)OC(=O)N1CC2(C1)N=C1C=C(C(C)(C)C)ON1[C@H]1[C@H](O)[C@H](O)C[C@H]12` [CBK303240], the viability at 28.5 h, 10 µM amounted to 97.6%. Turning to `COc1ccc(C(C)C)cc1-c1cncc(Nc2ccc(Cl)cc2)n1` [CBK065285], the viability at 28.5 h, 10 µM stood at 108%.

As to `O=C(CCN1C(=O)c2ccc(Br)cc2C1=O)N1CCN(Cc2ccccc2)CC1` [CBK269238], the viability at 28.5 h, 10 µM came out at 104%.

With `C/C(=N\N=C1\N=C(O)C(CC(=O)O)S1)c1ccco1` (centres unmarked) [CBK021973], the viability at 28.5 h, 10 µM was determined as 96.8%. Turning to `O=C(O)CCCCCN1C(=O)/C(=C/c2ccc(O)cc2)SC1=S` [CBK262835], the viability at 28.5 h, 10 µM is 87.6%. Consider `CN1CC[C@@H]2[C@H]1C(=O)NC[C@H](CCC(=O)NCc1cccs1)N2C` [CBK289028], for which the viability at 28.5 h, 10 µM stood at 115%. Still for that read-out and setting: then `CC1CCN(Cc2c(O)ccc3c(=O)c(-c4cccc(Cl)c4)c(C(F)(F)F)oc23)CC1` [CBK266258], with 103%. For the molecule `COc1ccc(OC(C)C(=O)Nc2cc(OC)c(Cl)cc2OC)cc1` (centres unmarked) [CBK263627], the viability at 28.5 h, 10 µM came out at 96%. With `O=C(c1ccco1)N1CCC2(CC1)Nc1cccnc1-n1cccc12` [CBK284506], the viability at 28.5 h, 10 µM came to 85.3%. In the case of `O=C1COc2ccccc2CCCC[C@@H]2CNCC[C@H]2N1` [CBK292038], the viability at 28.5 h, 10 µM came to 105%. For `CC(=O)Nc1cccc(NC(=O)c2cc(-c3ccccn3)nc3ccc(Cl)cc23)c1` [CBK267747], the viability at 28.5 h, 10 µM came out at 95.1%. For the molecule `N=C(N)NCc1ccc(Cl)cc1` [CBK002260], the viability at 28.5 h, 10 µM was found to be 95.7%. For `N#Cc1cccc(S(=O)(=O)Nc2ccc(-c3nnn[nH]3)cc2)c1` [CBK155427], the viability at 28.5 h, 10 µM is 95.5%.

For the molecule `O=C(O)c1cccc(-c2ccc(/C=N/Nc3ccc([N+](=O)[O-])cn3)o2)c1` [CBK263196], the viability at 28.5 h, 10 µM was 89.9%. On the same count and under the same terms, as for `O=c1[nH]c2ccccc2nc1-c1cc(Br)ccc1NCc1ccccc1` [CBK088071], the figure is 106%; as for `Cc1cc2c(o1)c1cnn(CC(=O)N3CCCCC3)c(=O)c1n2C` [CBK284217], 90.5%; as for `c1ccc2sc(CCCCc3nc4ccccc4s3)nc2c1` [CBK261248], 92.5%. For the molecule `CC(C)(C)O/N=C/c1cccnc1` [CBK015761C], the viability at 28.5 h, 10 µM is 109%. For `Cc1ccc(-n2ncc3c2NC(=O)N2CCN=C32)cc1` [CBK284345], the viability at 28.5 h, 10 µM stood at 85.5%.

As to `CSc1cccc(NC(=O)N2CCN(C(=O)C3CCCO3)CC2)c1` (centres unmarked) [CBK043283], the viability at 28.5 h, 10 µM came out at 100%. As to `COc1cccc2cc(C(=O)NCC3COc4ccccc4O3)oc12` (centres unmarked) [CBK149791], the viability at 28.5 h, 10 µM was 109%. Same read-out and setting: then `COC(=O)[C@H]1CN(C(=O)c2ccccn2)C[C@@H]1c1ccc(F)cc1` [CBK283727], with 101%. On the same count and under the same terms, as for `CN(C)CCN1C(=O)CCc2ccccc21` [CBK023390C], the figure is 102%; as for `CCn1cc(C(=O)O)c(=O)c2cnc(N3CCN(C(=S)NC(=O)C4c5ccccc5Oc5ccccc54)CC3)nc21` [CBK267114], 91.6%; as for `CC(=O)N(C)c1ccc(NC(=O)/C=C/C(=O)O)cc1` [CBK287162], 87%.

On to `COc1cc(CNc2cncc(-c3ccc(N)cc3)n2)cc(OC)c1OC` [CBK065483], for which the viability at 28.5 h, 10 µM is 96.5%. With `Cc1ccc(NC(=O)C2CC=CCC2C(=O)O)cc1NC(=O)c1ccc(Cl)cc1` (centres unmarked) [CBK268980], the viability at 28.5 h, 10 µM was 92.6%. Regarding `Cc1ccc(S(=O)(=O)Nc2ccc(C3(c4ccc(NS(=O)(=O)c5ccc(C)cc5)cc4)c4ccccc4-c4ccccc43)cc2)cc1` [CBK261154], the viability at 28.5 h, 10 µM stood at 102%. As to `COc1cc(-c2cnc(N)c(N3CCC(C(=O)O)CC3)n2)cc(OC)c1OC` [CBK063365], the viability at 28.5 h, 10 µM was 98.9%. As for `COc1ccc(C(=O)C=c2[nH]c(=O)c(=Cc3ccc(C(=O)O)cc3)s2)cc1` [CBK295614], the viability at 28.5 h, 10 µM was 99.6%. Turning to `O=C(O)CCC(NC(=O)c1ccc(Cl)cc1)C(=O)O` (centres unmarked) [CBK263597], the viability at 28.5 h, 10 µM was found to be 94.2%. On to `O=C(Nc1cccc(S(=O)(=O)N2CCOCC2)c1)c1cc(-c2cccnc2)nc2ccc(Cl)cc12` [CBK267720], for which the viability at 28.5 h, 10 µM came out at 98%. For the molecule `O=C(C1C2CCCCC21)N1CCC(Oc2cccc(F)c2)CC1` (centres unmarked) [CBK282216], the viability at 28.5 h, 10 µM amounted to 106%.

Regarding `COC(=O)c1ccc(-c2cnc(OCC3CCN(C(=O)OC(C)(C)C)CC3)nc2)nc1` [CBK170130], the viability at 28.5 h, 10 µM came out at 101%.

In the case of `CNC(=O)C1(Cc2ccccc2-c2cccs2)CCN(C(=O)Cc2ccccc2)CC1` [CBK285746], the viability at 28.5 h, 10 µM is 90.8%.

`CC1CN(C(=O)c2ccccc2-c2ccccc2C(=O)O)CC(C)O1` (centres unmarked) [CBK286577]: the viability at 28.5 h, 10 µM turned out to be 87.7%.

Regarding `CCS(=O)(=O)NC1CC(C)(C)Cc2c1cnn2-c1ccc(OC)cc1` (centres unmarked) [CBK306656], the viability at 28.5 h, 10 µM turned out to be 116%. Turning to `Cn1c(CN2CCCCC2)nc2cc(NS(=O)(=O)c3ccc(Cl)cc3)ccc21` [CBK268404], the viability at 28.5 h, 10 µM came out at 82.8%.

Consider `CC(C)c1noc(-c2ncn3c2c(=O)n(C(C)C)c2cc(F)ccc23)n1` [CBK016659], for which the viability at 28.5 h, 10 µM was 102%. In the case of `O=C(/C=C/c1cn(-c2ccccc2)nc1-c1cccnc1)c1ccc(-c2ccccc2)cc1` [CBK263213], the viability at 28.5 h, 10 µM is 95.5%. On the same count and under the same terms, then `O=c1[nH]cnc2c1cnn2Cc1ccccc1Cl` [CBK287999], with 97.1%; and `CN(C)CCCOC(=O)CN1c2ccccc2CCc2ccccc21` [CBK022863C], with 97%; and `CC(=O)Nc1ccc(Nc2nc(Br)cn3ccnc23)cc1` [CBK066338], with 104%.

As for `COc1cc(-c2nc(S(=O)(=O)c3ccccc3)c(N3CCOCC3)o2)cc(OC)c1OC` [CBK074539], the viability at 28.5 h, 10 µM was determined as 90.1%. For `CCc1nnc(NC(=O)CSc2nc3c([nH]2)c(=O)n(C)c(=O)n3C)s1` [CBK025840], the viability at 28.5 h, 10 µM is 113%. With `O=C1c2ccccc2C(c2ccc(NC(=O)c3cccc4ccccc34)cc2)(c2ccc(NC(=O)c3cccc4ccccc34)cc2)c2ccccc21` [CBK261162], the viability at 28.5 h, 10 µM is 103%.

As to `O=c1cc(CN2CCC[C@@H]2CN2CCCC2)[nH]c(=O)[nH]1` [CBK149108], the viability at 28.5 h, 10 µM was 92.2%. For `CC1CCc2c(sc(NC(=S)NC(=O)c3ccc4c(c3)OCCO4)c2C(N)=O)C1` (centres unmarked) [CBK266370], the viability at 28.5 h, 10 µM was 101%. For `O=C(CC(Nc1ccccc1Cl)C(=O)O)c1ccccc1` (centres unmarked) [CBK265386], the viability at 28.5 h, 10 µM is 81.1%. `CCOc1ccc(CNc2ccc(S(N)(=O)=O)cc2)cc1` [CBK267962]: the viability at 28.5 h, 10 µM is 89.3%.

As for `O=C(O)CCCC(=O)Nc1cccc([N+](=O)[O-])c1` [CBK261530], the viability at 28.5 h, 10 µM stood at 101%. Turning to `O=C(O)CCCCC/N=C1\CCc2ccccc2N1` [CBK286773], the viability at 28.5 h, 10 µM stood at 100%. On to `O=c1[nH]c(=O)c2cc(S(=O)(=O)NCC3CCN(Cc4ccccc4)C3)ccc2[nH]1` (centres unmarked) [CBK286384], for which the viability at 28.5 h, 10 µM amounted to 90%. Consider `NC(=O)CN1CCCN(c2ccnc(OCC3COc4ccccc4O3)n2)CC1` (centres unmarked) [CBK083236T], for which the viability at 28.5 h, 10 µM is 91.4%. As to `COc1ccc(C(C)C)cc1S(=O)(=O)NCCN1CCOCC1` [CBK266538], the viability at 28.5 h, 10 µM is 112%. Regarding `Cc1nc(-c2ccccc2)sc1C(=O)C1=C(O)C(=O)N(CCCN2CCOCC2)C1c1cccs1` (centres unmarked) [CBK266601], the viability at 28.5 h, 10 µM amounted to 91.4%. Regarding `CC(C(=O)O)N1C(=O)c2ccccc2C1c1c[nH]c2ccccc12` (centres unmarked) [CBK286576], the viability at 28.5 h, 10 µM is 106%. As to `CN(C)CCN(C)c1nc(-c2ccc(F)c(Cl)c2)cn2ccnc12` [CBK038007], the viability at 28.5 h, 10 µM stood at 95.7%.

For `CS(=O)(=O)c1cccc(S(=O)(=O)N2CCN(Cc3ccccc3)CC2)c1` [CBK269747], the viability at 28.5 h, 10 µM was 88.9%.

Turning to `Cn1cc(C2CCCCCN2S(=O)(=O)c2ccc(F)cc2)cn1` (centres unmarked) [CBK284739], the viability at 28.5 h, 10 µM came to 91.7%. The same measure, in the same setting: then `COc1cc(CC(=O)Nc2cccc(-c3ccc(SC(F)(F)F)cc3)c2)cc(OC)c1OC` [CBK132426], with 100%.

Consider `CCN(CC)C(=O)c1sc2ncccc2c1NS(=O)(=O)Cc1ccccc1[N+](=O)[O-]` [CBK050022], for which the viability at 28.5 h, 10 µM was 92.1%. On to `CCC1C(c2ccc(C)cc2)=CCC(C(=O)NCCCN(C)C)C1C` (centres unmarked) [CBK016514], for which the viability at 28.5 h, 10 µM worked out at 79.6%. As for `Brc1cn2ccnc2c(NCC2CC2)n1` [CBK037432], the viability at 28.5 h, 10 µM amounted to 93.6%. For `FC1(F)Oc2ccc(Nc3cncc(-c4cccs4)n3)cc2OC1(F)F` [CBK065727], the viability at 28.5 h, 10 µM was 110%.

`CC1CC1C(=O)NCC(=O)N1CCN(S(=O)(=O)c2ccccc2[N+](=O)[O-])CC1` (centres unmarked) [CBK296747]: the viability at 28.5 h, 10 µM worked out at 90.4%. Take `O=C(c1cc(-c2ccc(Cl)cc2)[nH]n1)N1CCNCC1` [CBK116548]: the viability at 28.5 h, 10 µM came out at 99.5%. Turning to `N#C/C(=C\c1ccc(OCC(=O)c2ccccc2)cc1)c1nc(-c2cccs2)cs1` [CBK266765], the viability at 28.5 h, 10 µM was 95.3%. Turning to `COc1cccc(C(=O)N2CCC(Cc3ccccc3-c3ccccc3)(C(N)=O)CC2)c1` [CBK285729], the viability at 28.5 h, 10 µM was determined as 93.6%. For `CSc1ccc(CN(C)CCN(C)C)cc1` [CBK019349], the viability at 28.5 h, 10 µM was 97.9%.

For `O=C(NCc1ccc(C(F)(F)F)nc1)OCCc1ccncc1` [CBK200132], the viability at 28.5 h, 10 µM came to 93.2%. Consider `CC(=O)Nc1ccc(-c2ccc(COC3CCN(C(=O)c4ccc(Cl)c(Cl)c4)CC3)cc2)cc1` [CBK149215], for which the viability at 28.5 h, 10 µM was found to be 89.3%.

Still in this series, the particulars now being: human, hela cells, % viability, bulk resorufin, single well.
Turning to `O=C1NC(=O)C(CC(=O)N2CCC3(CC2)OCc2cc(-c4ccccc4)ccc2O3)N1` (centres unmarked) [CBK061111], the viability at 28.5 h, 10 µM turned out to be 85.6%.
